From patent US8658690B2, “Use of novel compounds from fruiting body of Antrodia camphorata for treating an inflammatory disorder” (Well Shine Biotechnology Development Co., Ltd., priority 2008, dated 2014) come the findings set out here.

In brackets after ≈: the same amount, converted by molar mass.

As usually defined, the IC50 is the concentration needed to halve the response being measured.

Holding throughout (type): cell-based, murine
Data set [1] concerns LPS-stimulated RAW264.7 macrophage cells. Briefly: Cell viability by MTT method in LPS-stimulated RAW264.7 cells. The settings on record: 30 min pretreatment then 50 ng/mL LPS 48 hours. As to the method: (§1) IL-6, a proinflammatory cytokine which is a useful marker of infection, is secreted by macrophages in many infectious and inflammatory states, including cardiac surgery, cardiogenic shock, coronary bypass and bacteria sepsis (Kantar, M. et al., Eur. J. Pediatr. 2000, 159, 156-157). Serum concentration of IL-6 has been reported to correlate with disease severity (Pathan, N. et al., Lancet 2004, 363, 203-209). The productions of IL-6 from LPS-stimulated macrophages were measured to evaluate the anti-inflammation effect of the compounds. The cells were pretreated with compounds isolated from A. camphorata for 30 min and then stimulated with 50 ng/mL LPS for 48 hours. The supernatants were collected for TNF-α and IL-6 assay, and the cells were collected for viability analysis by MTT method.
(In general: Tetrazolium assays rely on reduction of a dye to a coloured formazan, in cell work by metabolically active cells.)

Data set [2] has as its system TNF-α. Briefly: TNF-α secretion in LPS-stimulated RAW264.7 cells, ELISA. The settings on record: 50 ng/mL LPS 48 hours, LPS control 3.81 ± 0.93. Here is the method: (§2) The cytokine levels in culture supernatants were measured by sandwich ELISA methods as described by Chen and Lin (Chen, M. L. et al., Int. Arch. Allergy Immunol. 2007, 143, 21-30). More specifically, the anti-cytokine antibodies (PharMingen, San Diego, Calif.) were coated in the 96-well plates (Nunc, Roskilde, Denmark) after overnight incubation at 4° C. and having been blocked with 1% BSA PBS buffer for 30 min. The samples and standards (recombinant mouse cytokines, PharMingen) were added to the 96-well plates for 2 hours incubation. The biotin-conjugated antibodies (biotinylated rat anti-mouse cytokine monoclonal antibodies, PharMingen) were added and incubated. After washing, streptavidin-conjugated peroxidase was added for 1 hour. The substrates, 2,2′-azino-bis-3-ethyl-benzthiazoline-6-sulfonic acid (ABTS, Sigma), were added to each well for 20 min. The plates were read in a microplate autoreader (Microplate autoreader; Bio-Tek Instruments, Winooski, Vt.) at 405 nm.
as §1
For orientation: An ELISA detects its analyte on a solid surface through an enzyme-linked reagent.

The subject of a further data set is IL-6. Briefly: IL-6 secretion in LPS-stimulated RAW264.7 cells, ELISA. As to conditions: for IL-6 (pg/mL) secretion: LPS control 238 ± 86; for IC50: Mus musculus, LPS-stimulated RAW264.7, 50 ng/mL LPS 48 hours, highest tested concentration 10 μg/mL, read-out: IC50 of IL-6 production. Here is the method: as §2, §1
Data set [3] has as its system TNF-α. The data set is described as follows: Spontaneous TNF-α secretion by RAW264.7 cells, sandwich ELISA of supernatants. The settings on record: 48 hours; for TNF-α (pg/mL) secretion: spontaneous, control 88 ± 45. Here is the method:
as §2
(§3) To evaluate the immunomodulatory effects of these new compounds, the in vitro production of cytokines in RA W264.7 cells were treated without or with the compounds of the invention at different concentrations for 48 hours. The supernatants were collected for TNF-α assay, and cells were collected for viability analysis by MTT method.

For data set [4], the system named is RAW264.7 macrophage cells. The data set is described as follows: Cell viability by MTT method in RAW264.7 cells treated with compounds for 48 hours (no LPS). The settings on record: RAW264.7, no LPS; for Cell viability (%): mean ± SD. Here is the method: as §3
Setting [5] is: 0.5 μg/mL, 50 ng/mL LPS 48 hours.
[6] abbreviates: 10 μg/mL, 50 ng/mL LPS 48 hours.

Regarding `CC(C)CC1=C(c2ccc(O)cc2)C(=O)OC1=O` [Compound 5, 3-(4-Hydroxyphenyl)-4-isobutylfuran-2,5-dione], the “Cell viability (%)” value in data set [1] (0.5 μg/mL) is 106 ± 4 %; in data set [1] (1 μg/mL) it was 105 ± 2 %; in data set [1] (5 μg/mL) it was 102 ± 2%; in data set [1] (10 μg/mL) it was 100 ± 3%; in data set [4] (0.5 μg/mL), 101 ± 7%; in data set [4] (1 μg/mL), 102 ± 5%. Moreover, the “Cell viability (%)” value in data set [4] (2 μg/mL) is reported as 99 ± 6%; in data set [4] (5 μg/mL) it was 95 ± 9%; in data set [4] (10 μg/mL), 86 ± 8 %. Moreover, the “TNF-α (ng/mL) secretion” value in the data set on TNF-α [2] (0.5 μg/mL) is recorded as 3.44 ± 0.31 ng/mL; in the data set on TNF-α [2] (1 μg/mL) it was 4.06 ± 1.14 ng/mL; in the data set on TNF-α [2] (5 μg/mL) it was 4.67 ± 1.09 ng/mL; in the data set on TNF-α [2] (10 μg/mL), 3.63 ± 0.58 ng/mL. Also, the “IL-6 (pg/mL) secretion” value in the data set with IL-6 (setting [5]) is given as 221 ± 102 pg/mL; in the data set on IL-6 (1 μg/mL, 50 ng/mL LPS 48 hours), 227 ± 94 pg/mL; with IL-6 (5 μg/mL, 50 ng/mL LPS 48 hours), 225 ± 68 pg/mL; in the data set with IL-6 (setting [6]), 215 ± 56 pg/mL. For the same compound, the IC50 in the data set on IL-6 turned out to be 96 µg/mL (≈ 390 µM). Besides, the “TNF-α (pg/mL) secretion” value turned out to be 100 ± 26 pg/mL in the data set on TNF-α [3] (0.5 μg/mL); 102 ± 30 pg/mL with TNF-α [3] (1 μg/mL); 90 ± 4 pg/mL with TNF-α [3] (2 μg/mL); 94 ± 19 pg/mL in the data set with TNF-α [3] (5 μg/mL); 106 ± 5 pg/mL in the data set with TNF-α [3] (10 μg/mL).

Regarding `CC(C)=CCOc1ccc([C@@H]2C(=O)NC(=O)[C@H]2CC(C)C)cc1` (relative stereo) [Compound 1, trans-3-Isobutyl-4-[4-(3-methyl-2-butenyloxy)phenyl]pyrrolidine-2,5-dione], the “Cell viability (%)” value was 105 ± 3% in data set [1] (0.5 μg/mL); 106 ± 4% in data set [1] (1 μg/mL); 105 ± 3% in data set [1] (5 μg/mL); 102 ± 4% in data set [1] (10 μg/mL); 103 ± 2% in data set [4] (0.5 μg/mL); 101 ± 3% in data set [4] (1 μg/mL). Moreover, the entries for the “Cell viability (%)” value in data set [4] (2 μg/mL), in data set [4] (5 μg/mL) and in data set [4] (10 μg/mL) were 108 ± 6%, 100 ± 10% and 99 ± 7%, respectively. In addition, the “TNF-α (ng/mL) secretion” value is 3.69 ± 0.39 ng/mL in the data set on TNF-α [2] (0.5 μg/mL), 3.92 ± 0.39 ng/mL with TNF-α [2] (1 μg/mL), 3.68 ± 0.25 ng/mL in the data set on TNF-α [2] (5 μg/mL) and 3.65 ± 0.17 ng/mL in the data set with TNF-α [2] (10 μg/mL). In the data set with IL-6 (50 ng/mL LPS 48 hours), the “IL-6 production in LPS-stimulated cells (in words)” value is given as “significantly decreased”. For the same compound, the “IL-6 (pg/mL) secretion” value with IL-6 (setting [5]) was found to be 213 ± 88 pg/mL; in the data set on IL-6 (1 μg/mL, 50 ng/mL LPS 48 hours), 211 ± 99 pg/mL; in the data set on IL-6 (5 μg/mL, 50 ng/mL LPS 48 hours), 144 ± 64 pg/mL; in the data set with IL-6 (setting [6]), 103 ± 61 pg/mL. For the same compound, in the data set on IL-6, the IC50 came out at 10 µg/mL (≈ 31.7 µM). The “spontaneous TNF-α secretion by RAW264.7 cells (in words)” value with TNF-α [3] (0.5˜5 μg/mL) is “significantly increased”. Besides, the “TNF-α (pg/mL) secretion” value was 117 ± 31 pg/mL in the data set on TNF-α [3] (0.5 μg/mL); 145 ± 44 pg/mL in the data set with TNF-α [3] (1 μg/mL); 183 ± 89 pg/mL in the data set on TNF-α [3] (2 μg/mL); 212 ± 60 pg/mL in the data set on TNF-α [3] (5 μg/mL); 188 ± 41 pg/mL in the data set on TNF-α [3] (10 μg/mL). Also, the “effect on cell viability (in words)” value in data set [4] is “without affecting cell viability”.

Regarding `CC(C)CC1=C(c2ccc(O)cc2)C(=O)NC1=O` [Compound 4, 3-(4-Hydroxyphenyl)-4-isobutyl-1H-pyrrole-2,5-dione], the “Cell viability (%)” value in data set [1] (0.5 μg/mL) came out at 105 ± 6%; in data set [1] (1 μg/mL), 103 ± 5%; in data set [1] (5 μg/mL), 97 ± 5%; in data set [1] (10 μg/mL), 92 ± 8%; in data set [4] (0.5 μg/mL), 97 ± 13%; in data set [4] (1 μg/mL), 99 ± 4%. Moreover, the “Cell viability (%)” value came to 97 ± 5% in data set [4] (2 μg/mL), 94 ± 7% in data set [4] (5 μg/mL) and 81 ± 8 % in data set [4] (10 μg/mL). Further, the “TNF-α (ng/mL) secretion” value in the data set on TNF-α [2] (0.5 μg/mL) turned out to be 2.98 ± 0.24 ng/mL; in the data set with TNF-α [2] (1 μg/mL), 3.22 ± 0.35 ng/mL; in the data set on TNF-α [2] (5 μg/mL) it was 3.72 ± 0.23 ng/mL; in the data set with TNF-α [2] (10 μg/mL) it was 3.12 ± 0.61 ng/mL. Further, the “IL-6 (pg/mL) secretion” value in the data set with IL-6 (setting [5]) was determined as 194 ± 81 pg/mL; in the data set with IL-6 (1 μg/mL, 50 ng/mL LPS 48 hours), 257 ± 40 pg/mL; in the data set on IL-6 (5 μg/mL, 50 ng/mL LPS 48 hours), 195 ± 83 pg/mL; with IL-6 (setting [6]), 169 ± 63 pg/mL. In addition, in the data set with IL-6, the IC50 turned out to be 18 µg/mL (≈ 73.4 µM). In addition, the “TNF-α (pg/mL) secretion” value turned out to be 91 ± 38 pg/mL in the data set on TNF-α [3] (0.5 μg/mL); 83 ± 22 pg/mL in the data set on TNF-α [3] (1 μg/mL); 105 ± 13 pg/mL in the data set with TNF-α [3] (2 μg/mL); 118 ± 23 pg/mL in the data set on TNF-α [3] (5 μg/mL); 104 ± 25 pg/mL in the data set with TNF-α [3] (10 μg/mL).

Regarding `CC(C)C[C@H]1C(=O)OC(=O)[C@H]1c1ccc(O)cc1` (relative stereo) [Compound 3, cis-3-(4-Hydroxyphenyl)-4-isobutyldihydrofuran-2,5-dione], the “Cell viability (%)” value in data set [1] (0.5 μg/mL) was determined as 105 ± 6%; in data set [1] (1 μg/mL) it was 104 ± 6%; in data set [1] (5 μg/mL), 99 ± 3%; in data set [1] (10 μg/mL), 91 ± 4 %; in data set [4] (0.5 μg/mL) it was 91 ± 9%; in data set [4] (1 μg/mL) it was 87 ± 8%. For the same compound, the results for the “Cell viability (%)” value in data set [4] (2 μg/mL), in data set [4] (5 μg/mL) and in data set [4] (10 μg/mL) were 80 ± 9 %, 72± 11 % and 67 ± 15 %, respectively. Also, the “TNF-α (ng/mL) secretion” value in the data set with TNF-α [2] (0.5 μg/mL) is recorded as 3.17 ± 0.70 ng/mL; in the data set on TNF-α [2] (1 μg/mL), 3.64 ± 0.84 ng/mL; with TNF-α [2] (5 μg/mL), 3.88 ± 0.37 ng/mL; in the data set on TNF-α [2] (10 μg/mL) it was 3.90 ± 0.10 ng/mL. The “IL-6 (pg/mL) secretion” value in the data set with IL-6 (setting [5]) is 214 ± 82 pg/mL; in the data set with IL-6 (1 μg/mL, 50 ng/mL LPS 48 hours) it was 234 ± 109 pg/mL; in the data set on IL-6 (5 μg/mL, 50 ng/mL LPS 48 hours), 185 ± 76 pg/mL; in the data set with IL-6 (setting [6]), 147 ± 53 pg/mL. In addition, the IC50 with IL-6 turned out to be 17 µg/mL (≈ 68.5 µM). Besides, the “TNF-α (pg/mL) secretion” value with TNF-α [3] (0.5 μg/mL) stood at 55 ± 2 pg/mL; with TNF-α [3] (1 μg/mL) it was 74 ± 7 pg/mL; in the data set on TNF-α [3] (2 μg/mL) it was 68 ± 7 pg/mL; with TNF-α [3] (5 μg/mL), 68 ± 26 pg/mL; in the data set with TNF-α [3] (10 μg/mL), 77 ± 35 pg/mL.
